Test system: 967376-340-R-J2-PDC multicell spheroid viability
Assay: Anticancer human tumor 967376-340-R-J2-PDC patient-derived colon adenocarcinoma cell line growth inhibition [PI3K]
Conditions: for viability, T/C: stronger effect = lower value; active means viability on the fitted dose curve at most 10% of control; inactive means the rest
In short: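 Stroma-containing spheroids: tumor line, pooled-donor HUVEC, hMSC. Treatments: targeted agents with PI3K inhibitors. Dosing: clinically relevant, half-log spacing, 10 microM ceiling without known Cmax. Read-out: cell viability.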

[1] = curve of first compound, second compound 0.0316 µM
[2] = curve of first compound, second compound 0.1 µM
[3] = curve of first compound, second compound 0.316 µM
[4] = curve of first compound, second compound 1 µM
[5] = second compound 0.0316 µM, first compound 0.00316 µM
[6] = second compound 0.0316 µM, first compound 0.01 µM
[7] = second compound 0.0316 µM, first compound 0.0316 µM
[8] = second compound 0.0316 µM, first compound 0.1 µM
[9] = second compound 0.1 µM, first compound 0.00316 µM
[10] = second compound 0.1 µM, first compound 0.01 µM
[11] = second compound 0.1 µM, first compound 0.0316 µM
[12] = second compound 0.1 µM, first compound 0.1 µM
[13] = second compound 0.316 µM, first compound 0.00316 µM
[14] = second compound 0.316 µM, first compound 0.01 µM
[15] = second compound 0.316 µM, first compound 0.0316 µM
[16] = second compound 0.316 µM, first compound 0.1 µM
[17] = second compound 1 µM, first compound 0.00316 µM
[18] = second compound 1 µM, first compound 0.01 µM
[19] = second compound 1 µM, first compound 0.0316 µM
[20] = second compound 1 µM, first compound 0.1 µM
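Further: spheroids exposed to agents for 7 days before read-out.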
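Wherever viability, T/C is given: luminescence used as surrogate of cell viability.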

CCN1CCN(Cc2ccc(Nc3ncc(F)c(-c4cc(F)c5nc(C)n(C(C)C)c5c4)n3)nc2)CC1 + COc1c(OCCCN2CCOCC2)ccc2c3n(c(=NC(=O)c4cnc(N)nc4)nc12)CCN3
inactive: viability, T/C (second compound 0.00316 µM, first compound 0.00316 µM) 85.1% | viability, T/C (second compound 0.00316 µM, first compound 0.01 µM) 95.7% | viability, T/C (second compound 0.00316 µM, first compound 0.0316 µM) 87.6% | viability, T/C (second compound 0.00316 µM, first compound 0.1 µM) 83.5% | viability, T/C (second compound 0.00316 µM, first compound 0.316 µM) 79.7% | viability, T/C (second compound 0.00316 µM, first compound 1 µM) 70.8% | viability, T/C (second compound 0.01 µM, first compound 0.00316 µM) 85.3% | viability, T/C (second compound 0.01 µM, first compound 0.01 µM) 77.9% | viability, T/C (second compound 0.01 µM, first compound 0.0316 µM) 62.4% | viability, T/C (second compound 0.01 µM, first compound 0.1 µM) 71.1% | viability, T/C (second compound 0.01 µM, first compound 0.316 µM) 73.2% | viability, T/C (second compound 0.01 µM, first compound 1 µM) 60.6% | viability, T/C [5] 68.6% | viability, T/C [6] 68.4% | viability, T/C [7] 71.4% | viability, T/C [8] 52.3% | viability, T/C (second compound 0.0316 µM, first compound 0.316 µM) 63.6% | viability, T/C (second compound 0.0316 µM, first compound 1 µM) 46.5% | viability, T/C [9] 66% | viability, T/C [10] 57.6% | viability, T/C [11] 48.2% | viability, T/C [12] 40.1% | viability, T/C (second compound 0.1 µM, first compound 0.316 µM) 39.2% | viability, T/C (second compound 0.1 µM, first compound 1 µM) 34.9% | viability, T/C [13] 53.2% | viability, T/C [14] 34.8% | viability, T/C [15] 43.4% | viability, T/C [16] 43.3% | viability, T/C (second compound 0.316 µM, first compound 0.316 µM) 42.4% | viability, T/C (second compound 0.316 µM, first compound 1 µM) 29.6% | viability, T/C [17] 42.2% | viability, T/C [18] 35.5% | viability, T/C [19] 38.4% | viability, T/C [20] 22.8% | viability, T/C (second compound 1 µM, first compound 0.316 µM) 28.4% | viability, T/C (second compound 1 µM, first compound 1 µM) 30.3%
< 3.16 nM: IC50 [3] | IC50 [4]
769 nM: IC50 [1]
> 1000 nM: IC50 (curve of first compound, second compound 0.00316 µM) | IC50 (curve of first compound, second compound 0.01 µM)
25 nM: IC50 [2]

CC(Nc1ncnc2nc[nH]c12)c1cc2cccc(Cl)c2c(=O)n1-c1ccccc1 (stereo not drawn)
> 10000 nM: IC50 (compound alone, run of 06/13/2023)
inactive: viability, T/C (compound 0.0316 µM) 94.5% [middle of 8 runs] | viability, T/C (compound 0.316 µM) 89% [middle of 8 runs] | viability, T/C (compound 1 µM) 94.5% [middle of 8 runs]

CC(=O)c1c(C)c2cnc(Nc3ccc(N4CCNCC4)cn3)nc2n(C2CCCC2)c1=O + CC(Nc1ncnc2nc[nH]c12)c1cc2cccc(Cl)c2c(=O)n1-c1ccccc1
> 100 nM: IC50 [1] | IC50 [2] | IC50 [3] | IC50 [4] | IC50 (curve of first compound, second compound 3.16 µM) | IC50 (curve of first compound, second compound 10 µM)
inactive: viability, T/C (second compound 0.0316 µM, first compound 0.000316 µM) 81.1% | viability, T/C (second compound 0.0316 µM, first compound 0.001 µM) 101% | viability, T/C [5] 92.2% | viability, T/C [6] 92.7% | viability, T/C [7] 79.9% | viability, T/C [8] 82.6% | viability, T/C (second compound 0.1 µM, first compound 0.000316 µM) 114% | viability, T/C (second compound 0.1 µM, first compound 0.001 µM) 89.4% | viability, T/C [9] 101% | viability, T/C [10] 89.4% | viability, T/C [11] 84.4% | viability, T/C [12] 83.8% | viability, T/C (second compound 0.316 µM, first compound 0.000316 µM) 101% | viability, T/C (second compound 0.316 µM, first compound 0.001 µM) 96% | viability, T/C [13] 113% | viability, T/C [14] 97% | viability, T/C [15] 79.3% | viability, T/C [16] 78.6% | viability, T/C (second compound 1 µM, first compound 0.000316 µM) 90% | viability, T/C (second compound 1 µM, first compound 0.001 µM) 103% | viability, T/C [17] 91% | viability, T/C [18] 80.3% | viability, T/C [19] 98.6% | viability, T/C [20] 88.2% | viability, T/C (second compound 3.16 µM, first compound 0.000316 µM) 89.6% | viability, T/C (second compound 3.16 µM, first compound 0.001 µM) 109% | viability, T/C (second compound 3.16 µM, first compound 0.00316 µM) 95.1% | viability, T/C (second compound 3.16 µM, first compound 0.01 µM) 90.3% | viability, T/C (second compound 3.16 µM, first compound 0.0316 µM) 84.1% | viability, T/C (second compound 3.16 µM, first compound 0.1 µM) 63.9% | viability, T/C (second compound 10 µM, first compound 0.000316 µM) 83.5% | viability, T/C (second compound 10 µM, first compound 0.001 µM) 89.5% | viability, T/C (second compound 10 µM, first compound 0.00316 µM) 81.3% | viability, T/C (second compound 10 µM, first compound 0.01 µM) 88% | viability, T/C (second compound 10 µM, first compound 0.0316 µM) 87.5% | viability, T/C (second compound 10 µM, first compound 0.1 µM) 86.9%
